Laboratory results as given in US20060110790A1, “Expression system for large functional proteins” (priority 2002, published 2006).

Legend:
[1] = target: full-length ABCR (Homo sapiens, UniProt P78363); assay: Retinal-stimulated ATPase activity of purified protein reconstituted in lipid vesicles; format: biochemical; set-up: Membranes from transfected cells expressing either full-length ABCR (lanes 1 & 2) or co-expressing the N and C halves; expressed in transfected cells; host or cells: transfected cells (COS-1 or EBNA293); conditions: expressed in COS-1 cells, purified on Rim 3F4 column, 50 μM [α32P]ATP
Method: Membranes (from two 10 cm dishes) were solubilized in 0.5 ml of 1% Triton-X100 in Buffer A (140 mM NaCl, 20 mM Tris-HCl, pH 7.4) for 20 min on ice. For ATPase assays, the membrane preparation step was omitted and the cell suspension was solubilized directly in Buffer B (10 mg/ml soybean phospholipids, 10% glycerol, 1 mM dithiothreitol, 100 mM NaCl, 3 mM MgCl2, 50 mM NaHEPES, pH 7.4) containing 18 mM CHAPS. The supernatant after a 10 min centrifugation at 40,000 rpm (TLA100.4 rotor) was mixed with 50 μl Rim3F4 Sepharose 2B for 1 h at 4° C. The beads were washed 6 times in Buffer A containing 0.2% Triton X-100 or Buffer B containing 10 mM CHAPS and eluted with 4% SDS (for electrophoresis) or 0.2 mg/ml Rim3F4 peptide (for reconstitution and determination of ATPase activity). […]
ATPase activity was measured as described previously (Ahn, J., Wong, J. T., and Molday, R. S. (2000) J Biol Chem 275(27), 20399-405) using 50 μM [α^32P]ATP and thin layer chromatography. The all-trans retinal concentration was determined spectrophotometrically (λ383 nm=42.88 mM^−1 cm^−1). […]
ATPase Activity of Expressed N and C Halves—The basal and retinal activated ATPase activity of full-length ABCR and the N and C halves individually or co-expressed in COS-1 cells was determined after immunoaffinity purification and reconstitution into lipid vesicles. […]

[2] = target: T1, ABCR (Homo sapiens, UniProt P78363); assay: 8-azido-ATP/ADP nucleotide trapping in membranes from transfected cells; format: binding; conditions: 50 μM all-trans retinal, 5 μM 8-azido-[α-32P]ATP, 37° C.
T1 construct: Membranes from transfected cells expressing either full-length ABCR (lanes 1 & 2) or co-expressing the N and C halves; expressed in transfected cells; host or cells: transfected cells (COS-1 or EBNA293)
Method: FIG. 7. Nucleotide trapping by ABCR and co-expressed N and C halves. A. Effect of orthovanadate on nucleotide trapping. Membranes from transfected cells were incubated with 5 μM 8-azido-[α-^32P]ATP at 37° C., washed, and tightly bound nucleotides were UV crosslinked. Lane 1, full-length ABCR; lane 2, full-length ABCR incubated with 800 μM orthovanadate; lane 3, co-expressed N and C halves; lane 4, co-expressed N- and C-halves incubated with 800 μM orthovanadate. B. Effect of temperature and retinal on nucleotide trapping. Lane 1, full-length ABCR labeled at 0° C.; lane 2, full-length ABCR labeled at 37° C.; lane 3, full-length ABCR labeled at 37° C. in the presence of 50 μM all-trans retinal; lane 4, co-expressed N and C halves labeled at 0° C.; lane 5, co-expressed N and C halves labeled at 37° C.; lane 6, co-expressed N and C halves labeled at 37° C. in the presence of 50 μM all-trans retinal.
8-Azido-ATP Trapping—Membranes were incubated with 5 μM 8-azido-[α-^32P]ATP in 50 μl of labeling buffer with or without 800 μM sodium orthovanadate for 10 min at 37° C. All-trans retinal and 50 μM DTT were added where indicated. Binding was stopped by the addition of ice-cold 20 mM Tris-HCl, pH 7.4, the membranes were collected by centrifugation and washed one more time. Samples exposed to orthovanadate were washed in the presence of 800 μM orthovanadate. […]

full-length ABCR, sequence (P78363 whole entry): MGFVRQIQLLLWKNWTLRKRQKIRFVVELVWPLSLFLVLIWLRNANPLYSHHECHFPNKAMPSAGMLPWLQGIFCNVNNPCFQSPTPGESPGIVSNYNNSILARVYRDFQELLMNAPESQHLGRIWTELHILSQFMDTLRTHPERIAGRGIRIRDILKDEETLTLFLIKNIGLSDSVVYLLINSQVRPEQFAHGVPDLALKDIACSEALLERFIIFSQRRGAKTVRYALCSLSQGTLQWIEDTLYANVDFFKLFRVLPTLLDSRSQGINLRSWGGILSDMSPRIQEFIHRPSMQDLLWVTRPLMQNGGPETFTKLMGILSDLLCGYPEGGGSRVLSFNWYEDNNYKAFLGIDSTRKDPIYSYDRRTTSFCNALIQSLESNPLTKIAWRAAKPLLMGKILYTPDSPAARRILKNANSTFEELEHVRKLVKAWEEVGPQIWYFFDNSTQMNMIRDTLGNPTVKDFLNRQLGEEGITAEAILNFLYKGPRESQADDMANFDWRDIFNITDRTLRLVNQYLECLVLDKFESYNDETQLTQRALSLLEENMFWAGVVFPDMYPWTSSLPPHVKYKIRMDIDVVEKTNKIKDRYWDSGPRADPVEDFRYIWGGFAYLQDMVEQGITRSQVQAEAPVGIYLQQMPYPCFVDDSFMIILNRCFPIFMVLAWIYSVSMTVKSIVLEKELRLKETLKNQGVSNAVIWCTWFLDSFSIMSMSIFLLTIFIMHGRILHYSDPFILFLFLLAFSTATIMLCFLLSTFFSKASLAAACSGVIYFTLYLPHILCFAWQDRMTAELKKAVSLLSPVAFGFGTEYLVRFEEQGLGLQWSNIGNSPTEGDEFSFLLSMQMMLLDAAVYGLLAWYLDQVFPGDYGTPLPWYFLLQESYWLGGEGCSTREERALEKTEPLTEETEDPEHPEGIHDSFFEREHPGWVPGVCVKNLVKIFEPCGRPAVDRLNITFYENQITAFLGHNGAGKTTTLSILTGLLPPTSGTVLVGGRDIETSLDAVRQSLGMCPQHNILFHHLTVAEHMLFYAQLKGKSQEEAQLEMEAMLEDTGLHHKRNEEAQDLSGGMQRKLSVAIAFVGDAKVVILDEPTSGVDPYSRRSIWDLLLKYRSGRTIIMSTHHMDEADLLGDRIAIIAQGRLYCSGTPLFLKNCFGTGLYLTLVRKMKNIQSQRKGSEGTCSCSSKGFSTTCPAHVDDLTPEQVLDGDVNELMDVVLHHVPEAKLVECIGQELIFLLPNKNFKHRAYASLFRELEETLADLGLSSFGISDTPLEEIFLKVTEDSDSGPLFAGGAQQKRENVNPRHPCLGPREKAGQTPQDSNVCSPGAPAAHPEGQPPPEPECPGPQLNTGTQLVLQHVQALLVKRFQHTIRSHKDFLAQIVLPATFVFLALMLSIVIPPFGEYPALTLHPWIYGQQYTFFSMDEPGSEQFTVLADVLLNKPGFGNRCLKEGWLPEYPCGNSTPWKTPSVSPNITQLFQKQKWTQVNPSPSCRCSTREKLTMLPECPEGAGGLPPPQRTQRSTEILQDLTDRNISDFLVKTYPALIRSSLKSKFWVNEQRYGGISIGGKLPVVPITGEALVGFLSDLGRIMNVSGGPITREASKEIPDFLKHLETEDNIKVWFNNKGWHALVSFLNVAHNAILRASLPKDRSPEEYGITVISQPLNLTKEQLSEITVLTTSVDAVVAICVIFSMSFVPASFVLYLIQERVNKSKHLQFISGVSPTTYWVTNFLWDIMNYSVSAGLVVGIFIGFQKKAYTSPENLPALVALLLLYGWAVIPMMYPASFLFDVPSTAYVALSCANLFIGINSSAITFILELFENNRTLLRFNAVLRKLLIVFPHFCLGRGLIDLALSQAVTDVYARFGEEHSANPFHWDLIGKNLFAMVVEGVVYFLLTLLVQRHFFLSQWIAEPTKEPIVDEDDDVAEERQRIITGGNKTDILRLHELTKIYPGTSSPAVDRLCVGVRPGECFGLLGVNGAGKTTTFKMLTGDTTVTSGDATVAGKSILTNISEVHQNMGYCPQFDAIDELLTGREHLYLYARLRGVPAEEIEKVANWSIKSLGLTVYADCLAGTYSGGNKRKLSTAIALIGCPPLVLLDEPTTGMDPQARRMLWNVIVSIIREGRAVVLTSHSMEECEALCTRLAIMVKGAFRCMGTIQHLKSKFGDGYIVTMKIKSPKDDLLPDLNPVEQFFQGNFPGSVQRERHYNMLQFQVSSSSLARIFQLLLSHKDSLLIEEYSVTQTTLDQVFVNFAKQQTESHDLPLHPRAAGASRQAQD
T1 sequence (P78363 whole entry): as above

stimulation of ATPase activity [1]: 1-2 fold
Structure (SMILES): CC1=C(/C=C/C(C)=C/C=C/C(C)=C/C=O)C(C)(C)CCC1 [all-trans retinal]
effect on 8-azido ATP/ADP trapping [2]: not dependent on sodium orthovanadate or influenced
